{"source": "patent US9428665B2", "about": "“Photopolymerizable inkjet ink, ink cartridge, and inkjet recording device” (Ricoh Company, Ltd., priority 2011, dated 2016)", "key": {"[1]": {"conditions": "in vivo; cited from earlier work"}, "[2]": {"conditions": "cited from earlier work"}, "[3]": {"conditions": "test method: the maximization method; cited from earlier work"}, "female mice": {"tested_on": "female mice", "experiment": "Skin sensitization test based on the LLNA (Local Lymph Node Assay), SI value by BrdU intake", "format": "in vivo", "conditions": "test substance 50.0 w/v % in acetone:olive oil 4:1, 25 μL/auricle once/day × 3 days, SI less than 3 = negative for skin sensitization", "description": "Here, the photopolymerizable monomer negative for skin sensitization refers to at least one of the following compounds (1) to (3): • (1) a compound having a Stimulation Index (SI value) of less than 3, where the Stimulation Index indicates the extent of sensitization as measured by a skin sensitization test based on the LLNA (Local Lymph Node Assay); • (2) a compound evaluated as “negative for skin sensitization” or “no skin sensitization” in its MSDS (Material Safety Data Sheet); and • (3) a compound evaluated as “negative for skin sensitization” or “without skin sensitization” in literature [e.g., Contact Dermatitis 8 223-235 (1982)]. […]\nAccording to the skin sensitization test based on the LLNA (Local Lymph Node Assay), the SI value was measured in the below described manner. […]\nBefore treated with the test substances, the positive control or the vehicle control, female mice were acclimated for 8 days including 6-day quarantine. […] Based on the body weights measured 2 days before the initiation of sensitization, they were categorized into 2 groups (4 mice/group) by the body weight stratified random sampling method so that the body weight of each individual was within ±20% of the average body weight of all the individuals. […]"}, "[4]": {"conditions": "test method: OECD test guideline 406"}}, "note": "Where two headings read alike, the source gives them in different places.", "data": [{"molecule": "C=CC(=O)NCCO", "note": "[HEAA, Hydroxyethylacryl amide]", "values": [{"measurement": "skin sensitization evaluation (MSDS or literature)", "setting": "[1]", "value": "none"}]}, {"molecule": "CCC(Cc1ccccc1)(C(=O)c1ccc(N2CCOCC2)cc1)N(C)C", "note": "(centres unmarked) [Example C3, 2-Benzyl-2-dimethylamino-1-(4-morpholinophenyl)butanone-1]", "values": [{"measurement": "skin sensitization evaluated in the MSDS", "setting": "[2]; [4]", "value": "none"}]}, {"molecule": "C=C(C)C(=O)OC(C)(C)C", "note": "[LIGHT ESTER TB, t-Butyl methacrylate]", "values": [{"measurement": "skin sensitization evaluated in the literature", "setting": "[3]", "value": "negative"}]}, {"molecule": "C=C(C)C(=O)OCCCCCC", "note": "[HEXYL METHACRYLATE, n-Hexyl methacrylate]", "values": [{"measurement": "skin sensitization evaluated in the literature", "setting": "[3]", "value": "negative"}]}, {"molecule": "CCC(Cc1ccc(C)cc1)(C(=O)c1ccc(N2CCOCC2)cc1)N(C)C", "note": "(centres unmarked) [Example C1, 2-Dimethylamino-2-(4-methylbenzyl)-1-(4-morpholin-4-yl-phenyl) butan-1-one]", "values": [{"measurement": "skin sensitization evaluated in the MSDS", "setting": "[2]; [4]", "value": "none"}]}, {"molecule": "C=C(C)C(=O)OCCCCC", "note": "[n-AMYL METHACRYLATE, n-Pentyl methacrylate]", "values": [{"measurement": "skin sensitization evaluated in the literature", "setting": "[3]", "value": "negative"}]}, {"molecule": "C=COCCOCCOCCOC=C", "note": "[Example B1, Triethylene glycol divinyl ether]", "values": [{"measurement": "skin sensitization evaluated in the MSDS", "setting": "[2]; [4]", "value": "negative"}]}, {"molecule": "CCCCC(CC)COC(=O)c1ccc(N(C)C)cc1", "note": "(centres unmarked) [2-ethylhexyl p-dimethylaminobenzoate]", "values": [{"measurement": "skin sensitization evaluated in the MSDS", "setting": "[2]; [4]", "value": "none"}]}, {"molecule": "Caprolactone-modified dipentaerythritol hexaacrylate [DPCA-60]", "values": [{"measurement": "skin sensitization evaluated in the MSDS", "setting": "[2]; in vivo", "value": "negative"}]}, {"molecule": "CSc1ccc(C(=O)C(C)(C)N2CCOCC2)cc1", "note": "[Example C2, 2-Methyl-1-[4-(methylthio)phenyl]-2-morpholinopropan-1-one]", "values": [{"measurement": "skin sensitization evaluated in the MSDS", "setting": "[2]; [4]", "value": "none"}]}, {"molecule": "CCc1cc(CC)c2sc3ccccc3c(=O)c2c1", "note": "[2,4-Diethylthioxanthone]", "values": [{"measurement": "SI value (Stimulation Index)", "setting": "female mice", "value": 1.4}]}]}
